{"source": "patent EP1658844A1", "about": "“Use of artemisinin derivatives in the manufacture of a medicament for the treatment of melanoma” (Schuler, Gerold, priority 2004, dated 2006)", "key": {"nucleic acid synthesis": {"test_system": "nucleic acid synthesis", "conditions": "cited from earlier work"}, "[1]": {"test_system": "metastatic uveal melanoma", "method": "In the experimental examples below, standard techniques of therapeutical agent administration were used. […] Artesunate was provided by Sanofi Synthelabo, France.\nThe clinical course of the disease and the treatment modalities are depicted in detail in Figure 1. […] A chemotherapy with Dacarbazin (DTIC) was initiated at a concentration of 850 mg per m^2 body surface.\nThe clinical course of the disease and the treatment modalities are depicted in detail in Figure 2. […] A chemotherapy with DTIC at a concentration of 850 mg per m^2 body surface was initiated. […] In addition, the patient received an iron medication (three times daily ferroglycine sulfate equivalent to 40 mg Fe^2+) to potentially increase the efficacy of ART."}, "[2]": {"test_system": "cell line panels consisting of 60 lines", "conditions": "60 cell lines in nine disease-related subpanels; cited from earlier work"}, "P388 leukemia": {"test_system": "P388 leukemia", "conditions": "NCI report on NSC 369397; cited from earlier work"}, "tumor": {"test_system": "tumor", "conditions": "combination treatment with ferrous sulfate, three dog studies; cited from earlier work"}, "uveal melanoma": {"test_system": "uveal melanoma", "conditions": "largest prospective trial, metastatic uveal melanoma; cited from earlier work"}, "[3]": {"conditions": "within the group of artemisinin analogs; cited from earlier work"}}}
{"smiles": "C[C@H]1[C@H](OC(=O)CCC(=O)O)O[C@@H]2O[C@@]3(C)CC[C@H]4[C@H](C)CC[C@@H]1[C@@]24OO3", "note": "[ART, (3R,5aS,6R,8aS,9R,10S,12R,12aR)-Decahydro-3,6,9-trimethyl-3,12-epoxy-12H-pyrano[4,3-j]1,2-benzodioxepin-10-ol,hydrogen succinate]", "values": [{"measurement": "activity relative to artemisinin in ability to inhibit nucleic acid synthesis", "setting": "nucleic acid synthesis", "result": 100, "unit": "times"}, {"measurement": "side effects throughout the combination therapy", "setting": "[1]; human, in vivo", "result": "no additional side effects"}, {"measurement": "toxicity of ART-treatment", "setting": "[1]; human, in vivo", "result": "without measurable toxicity"}, {"measurement": "survival after start of the ART/Fotemustine therapy", "setting": "[1]; patient 1", "result": 11, "unit": "months"}, {"measurement": "response at first staging", "setting": "[1]; patient 1, ART 2 times daily 50 mg p.o. in combination with Fotemustine, three months after initiation", "result": "mixed response"}, {"measurement": "time to death after entry into stage IV according to AJCC", "setting": "[1]; patient 1, DTIC, then Fotemustine, then ART plus chemotherapy", "result": 23, "unit": "months"}, {"measurement": "survival (still alive) after initiation of ART/DTIC-therapy", "setting": "[1]; patient 2", "result": "≥ 37", "unit": "months"}, {"measurement": "response", "setting": "[1]; patient 2, 50 mg ART twice daily p.o. with DTIC and ferroglycine sulfate, after 21 courses of DTIC, the last 11 with ART", "result": "objective response"}, {"measurement": "survival (still alive) after first diagnosis of stage IV uveal melanoma", "setting": "[1]; patient 2, ART added to Dacarbazin", "result": "≥ 37", "unit": "months"}]}
{"smiles": "C[C@@H]1CC[C@H]2[C@@H](C)C(=O)O[C@@H]3O[C@@]4(C)CC[C@@H]1[C@]32OO4", "note": "[Artemisinin]", "values": [{"measurement": "anticancer activity", "setting": "[2]", "result": "very little anticancer activity"}, {"measurement": "activity against P388 leukemia", "setting": "P388 leukemia", "result": "inactive"}, {"measurement": "tumor size", "setting": "tumor", "result": "reduction of tumor size"}]}
{"smiles": "CCOP(=O)(OCC)C(C)NC(=O)N(CCCl)N=O", "note": "(stereo not drawn) [Fotemustine]", "values": [{"measurement": "complete responses (CR)", "setting": "uveal melanoma", "result": "one CR in 48 patients"}]}
{"smiles": "CCO[C@H]1O[C@@H]2O[C@@]3(C)CC[C@H]4[C@H](C)CC[C@@H]([C@H]1C)[C@@]24OO3", "note": "[arteether]", "values": [{"measurement": "activity relative to artemisinin in ability to inhibit nucleic acid synthesis", "setting": "nucleic acid synthesis", "result": 100, "unit": "times"}]}
{"smiles": "C[C@H]1[C@@H](OCc2ccc(C(=O)O)cc2)O[C@@H]2O[C@@]3(C)CC[C@H]4[C@H](C)CC[C@@H]1[C@@]24OO3", "note": "[artelinic acid]", "values": [{"measurement": "activity relative to artemisinin in ability to inhibit nucleic acid synthesis", "setting": "nucleic acid synthesis", "result": 100, "unit": "times"}, {"measurement": "stability", "setting": "[3]", "result": "most stable"}, {"measurement": "water solubility", "setting": "[3]", "result": "most water soluble"}]}
{"smiles": "CCCOC(=O)OC1O[C@@H]2O[C@@]3(C)CC[C@H]4[C@H](C)CC[C@@H]([C@H]1C)[C@@]24OO3", "note": "(stereo partly drawn) [propylcarbonate dihydroartemisinin]", "values": [{"measurement": "activity relative to artemisinin in ability to inhibit nucleic acid synthesis", "setting": "nucleic acid synthesis", "result": 100, "unit": "times"}]}
